Source: PubChem BioAssay (NCI)
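The compound was tested at five concentrations on cells cultured in 96-well plates, with a 48-hour exposure period. The concentration for full growth arrest is given as TGI.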

Columns and labels:
Experiment in all cases: growth of human tumour cells (NCI), 48 h
[1] = tested on: 786-0 renal
[2] = tested on: A498 renal
[3] = tested on: A549 NSCLC
[4] = tested on: ACHN renal
[5] = tested on: BT-549 breast
[6] = tested on: CAKI-1 renal
[7] = tested on: CCRF-CEM leukemia
[8] = tested on: COLO 205 colon
[9] = tested on: DU-145 prostate
[10] = tested on: EKVX NSCLC
[11] = tested on: HCT-116 colon
[12] = tested on: HCT-15 colon
[13] = tested on: HL-60(TB) leukemia
[14] = tested on: HOP-62 NSCLC
[15] = tested on: HOP-92 NSCLC
[16] = tested on: HS 578T breast
[17] = tested on: HT29 colon
[18] = tested on: IGROV1 ovarian
[19] = tested on: K-562 leukemia
[20] = tested on: KM12 colon
[21] = tested on: LOX IMVI melanoma
[22] = tested on: M14 melanoma
[23] = tested on: MCF7 breast
[24] = tested on: MDA-MB-231 breast
[25] = tested on: MDA-MB-435
[26] = tested on: MDA-N
[27] = tested on: MOLT-4 leukemia
[28] = tested on: NCI-H23 lung
[29] = tested on: NCI-H460 lung
[30] = tested on: NCI-H522 lung
[31] = tested on: NCI/ADR-RES ovarian
[32] = tested on: OVCAR-3 ovarian
[33] = tested on: OVCAR-4 ovarian
[34] = tested on: OVCAR-5 ovarian
[35] = tested on: OVCAR-8 ovarian
[36] = tested on: PC-3 prostate
[37] = tested on: RPMI-8226 leukemia
[38] = tested on: SF-268 CNS
[39] = tested on: SF-295 CNS
[40] = tested on: SF-539 CNS
[41] = tested on: SK-MEL-2 melanoma
[42] = tested on: SK-MEL-5 melanoma
[43] = tested on: SK-OV-3 ovarian
[44] = tested on: SN12C renal
[45] = tested on: SNB-19 CNS
[46] = tested on: SR leukemia
[47] = tested on: SW-620 colon
[48] = tested on: TK-10 renal
[49] = tested on: U251 CNS
[50] = tested on: UACC-257 melanoma
[51] = tested on: UACC-62 melanoma
[52] = tested on: UO-31 renal
[53] = tested on: HCC-2998 colon
[54] = tested on: MALME-3M melanoma
[55] = tested on: SK-MEL-28 melanoma
[56] = tested on: T-47D breast
[57] = tested on: NCI-H226 lung
[58] = tested on: RXF 393 renal
[59] = tested on: SNB-75 CNS

With `CC(C)=CCc1cc(/C=C/C(=O)O)cc(CC=C(C)C)c1O` the TGI [1] was greater than 100 µM, the TGI [2] was greater than 100 µM and the TGI [3] was greater than 100 µM. For the same compound, the TGI [4] was greater than 100 µM, the TGI [5] was greater than 100 µM and the TGI [6] was greater than 100 µM. The TGI [7] was greater than 100 µM, the TGI [8] was greater than 100 µM and the TGI [9] was greater than 100 µM. The TGI [10] was greater than 100 µM, the TGI [11] was greater than 100 µM and the TGI [12] was greater than 100 µM. The TGI [13] was greater than 100 µM, the TGI [14] was greater than 100 µM and the TGI [15] was greater than 100 µM. The TGI [16] was greater than 100 µM, the TGI [17] was greater than 100 µM and the TGI [18] was greater than 100 µM. For the same compound, the TGI [19] was greater than 100 µM, the TGI [20] was greater than 100 µM and the TGI [21] was greater than 100 µM. For the same compound, the TGI [22] was greater than 100 µM, the TGI [23] was greater than 100 µM and the TGI [24] was greater than 100 µM. It also gave a TGI [25] greater than 100 µM, a TGI [26] greater than 100 µM and a TGI [27] greater than 100 µM. It also gave a TGI [28] greater than 100 µM, a TGI [29] greater than 100 µM and a TGI [30] greater than 100 µM. The TGI [31] was greater than 100 µM, the TGI [32] was greater than 100 µM and the TGI [33] was greater than 100 µM. The TGI [34] was greater than 100 µM, the TGI [35] was greater than 100 µM and the TGI [36] was greater than 100 µM. For the same compound, the TGI [37] was greater than 100 µM, the TGI [38] was greater than 100 µM and the TGI [39] was greater than 100 µM. For the same compound, the TGI [40] was greater than 100 µM, the TGI [41] was greater than 100 µM and the TGI [42] was greater than 100 µM. It also gave a TGI [43] greater than 100 µM, a TGI [44] greater than 100 µM and a TGI [45] greater than 100 µM. It also gave a TGI [46] greater than 100 µM, a TGI [47] greater than 100 µM and a TGI [48] greater than 100 µM. It also gave a TGI [49] greater than 100 µM, a TGI [50] greater than 100 µM and a TGI [51] greater than 100 µM. It also gave a TGI [52] greater than 100 µM.

Compound `CCCCCCc1cc2cc(C(=O)Nc3cccc(F)c3)c(=N)oc2cc1O` has a TGI [1] of 11.5 µM, a TGI [2] of 15 µM and a TGI [3] of 13.4 µM. It also gave a TGI [4] greater than 100 µM, a TGI [5] of 6.19 µM and a TGI [6] of 10.2 µM. For the same compound, the TGI [7] was 4.97 µM, the TGI [8] was 34.7 µM and the TGI [9] was 12.2 µM. For the same compound, the TGI [10] was 6.44 µM, the TGI [53] was 11.6 µM and the TGI [11] was 11.1 µM. The TGI [12] was 5.87 µM, the TGI [13] was 5.33 µM and the TGI [14] was 17.7 µM. It also gave a TGI [16] of 6.81 µM, a TGI [17] of 78.6 µM and a TGI [18] of 4 µM. The TGI [19] was 10.5 µM, the TGI [20] was 8.3 µM and the TGI [21] was 3.41 µM. The TGI [22] was 11.3 µM, the TGI [54] was 8.75 µM and the TGI [23] was 11.7 µM. The TGI [25] was 6.51 µM, the TGI [26] was 11.8 µM and the TGI [27] was 7.69 µM. The TGI [28] was 5.06 µM, the TGI [29] was greater than 100 µM and the TGI [30] was 5.33 µM. The TGI [31] was 7.54 µM, the TGI [32] was 23.7 µM and the TGI [33] was 12.3 µM. For the same compound, the TGI [34] was 48.6 µM, the TGI [35] was 3.56 µM and the TGI [36] was 14 µM. It also gave a TGI [37] of 9.4 µM, a TGI [38] of 10.6 µM and a TGI [39] of 15.9 µM. The TGI [40] was 19.2 µM, the TGI [41] was 5.44 µM and the TGI [55] was 9.51 µM. For the same compound, the TGI [42] was 2.85 µM, the TGI [43] was 13.3 µM and the TGI [45] was 23.9 µM. It also gave a TGI [46] of 6.29 µM, a TGI [47] greater than 100 µM and a TGI [56] of 7.35 µM. It also gave a TGI [49] of 6.58 µM, a TGI [50] of 11.9 µM and a TGI [51] of 7.04 µM. It also gave a TGI [52] of 12.4 µM.

`O=C1N[C@H](C(=O)O)[C@@H](c2ccc(OCc3ccccc3)cc2)O1` showed a TGI [1] of 65.6 µM, a TGI [3] greater than 100 µM and a TGI [4] greater than 100 µM. The TGI [5] was greater than 100 µM, the TGI [6] was greater than 100 µM and the TGI [7] was greater than 100 µM. For the same compound, the TGI [8] was greater than 100 µM, the TGI [9] was greater than 100 µM and the TGI [10] was 89.1 µM. The TGI [53] was greater than 100 µM, the TGI [11] was greater than 100 µM and the TGI [12] was greater than 100 µM. For the same compound, the TGI [14] was 33.2 µM, the TGI [16] was greater than 100 µM and the TGI [17] was greater than 100 µM. The TGI [18] was 78.6 µM, the TGI [19] was greater than 100 µM and the TGI [20] was greater than 100 µM. For the same compound, the TGI [22] was greater than 100 µM, the TGI [54] was greater than 100 µM and the TGI [23] was greater than 100 µM. For the same compound, the TGI [24] was 51.4 µM, the TGI [25] was greater than 100 µM and the TGI [26] was greater than 100 µM. For the same compound, the TGI [27] was greater than 100 µM, the TGI [57] was 55.7 µM and the TGI [28] was greater than 100 µM. It also gave a TGI [30] greater than 100 µM, a TGI [31] of 65.3 µM and a TGI [32] greater than 100 µM. The TGI [33] was greater than 100 µM, the TGI [34] was greater than 100 µM and the TGI [35] was 45.8 µM. The TGI [36] was greater than 100 µM, the TGI [37] was greater than 100 µM and the TGI [58] was 32.1 µM. It also gave a TGI [38] of 87.9 µM, a TGI [39] of 79.6 µM and a TGI [41] greater than 100 µM. For the same compound, the TGI [55] was greater than 100 µM, the TGI [42] was greater than 100 µM and the TGI [43] was greater than 100 µM. The TGI [44] was greater than 100 µM, the TGI [45] was 45 µM and the TGI [59] was 28 µM. The TGI [47] was greater than 100 µM, the TGI [56] was greater than 100 µM and the TGI [48] was 84.4 µM. For the same compound, the TGI [49] was greater than 100 µM, the TGI [50] was greater than 100 µM and the TGI [51] was greater than 100 µM. It also gave a TGI [52] greater than 100 µM.

With `Cc1c(C#N)c2nc3ccccc3n2c(=O)/c1=C/Nc1ccc(Cl)cc1` the TGI [1] was 20.7 µM, the TGI [2] was 72.5 µM and the TGI [3] was greater than 100 µM. The TGI [4] was 25 µM, the TGI [5] was 99.6 µM and the TGI [6] was greater than 100 µM. For the same compound, the TGI [8] was greater than 100 µM, the TGI [10] was greater than 100 µM and the TGI [53] was greater than 100 µM. It also gave a TGI [11] greater than 100 µM, a TGI [12] greater than 100 µM and a TGI [13] greater than 100 µM. It also gave a TGI [14] of 33.1 µM, a TGI [15] of 67.5 µM and a TGI [16] of 54.5 µM. It also gave a TGI [17] greater than 100 µM, a TGI [18] greater than 100 µM and a TGI [19] greater than 100 µM. For the same compound, the TGI [20] was greater than 100 µM, the TGI [21] was greater than 100 µM and the TGI [22] was 40.9 µM. The TGI [54] was greater than 100 µM, the TGI [23] was greater than 100 µM and the TGI [24] was 77.9 µM. It also gave a TGI [25] greater than 100 µM, a TGI [26] greater than 100 µM and a TGI [27] greater than 100 µM. It also gave a TGI [57] greater than 100 µM, a TGI [28] of 59.8 µM and a TGI [29] greater than 100 µM. For the same compound, the TGI [30] was greater than 100 µM, the TGI [31] was greater than 100 µM and the TGI [33] was greater than 100 µM. The TGI [34] was greater than 100 µM, the TGI [35] was greater than 100 µM and the TGI [37] was greater than 100 µM. It also gave a TGI [58] of 25.6 µM, a TGI [38] greater than 100 µM and a TGI [39] of 61.5 µM. The TGI [40] was 30.5 µM, the TGI [41] was 46.6 µM and the TGI [55] was greater than 100 µM. The TGI [42] was greater than 100 µM, the TGI [43] was 32.4 µM and the TGI [44] was greater than 100 µM. The TGI [45] was 27.9 µM, the TGI [59] was 23.1 µM and the TGI [46] was greater than 100 µM. The TGI [47] was greater than 100 µM, the TGI [56] was greater than 100 µM and the TGI [48] was 35.7 µM. For the same compound, the TGI [49] was 24.6 µM, the TGI [50] was greater than 100 µM and the TGI [51] was 47.4 µM. For the same compound, the TGI [52] was 70.9 µM.
